Data from article PMC4484629, “Targeting of anti-citrullinated protein/peptide antibodies in rheumatoid arthritis using peptides mimicking endogenously citrullinated fibrinogen antigens” (Arthritis Research & Therapy, 2015).
Values joined by “and” are separate entries in the source; they are usually repeats but may differ in a detail not shown here. Identical values can stand only once. Where a SMILES comes first, the peptide text is derived from it. [ ]: non-standard residue; d: D form. Cit = NC(=O)NCCC[C@H](N)C(=O)O

What was measured:
[1] = test system: ACPA pool I (affinity purified human anti-CCP2 IgG); assay: ACPA competition assay: peptide pre-incubated with ACPA, then anti-CCP2 ELISA (CCPlus); format: binding; conditions: for maximum ACPA blocking (inhibition of anti-CCP2 reactivity): ACPA pool I 1.2 μg/ml (8 nM IgG), peptide 0.016-320 nmol in 225 μl, 1 h room temperature before CCP2 ELISA, mean of 2-7 experiments; for IC50: ACPA pool I 1.2 μg/ml, 1 h room temperature pre-incubation, mean ± SEM, n given per value (n = 2-6), GraphPad Prism, read-out: IC50 of ACPA blocking (relative IC50)
Experimental: (§1) ACPA were affinity purified as recently described. Two different ACPA pools were prepared for the competition assays: ACPA pool I, containing autoantibodies purified from 11 plasma or serum samples (plasma n = 4, sera n = 7); and ACPA pool II, containing 39 plasma or serum samples (plasma n = 38, serum n = 1). Before pooling, each purified ACPA sample was individually tested by in house ELISA for immunoreactivity to fibrinogen Cit573 and citrullinated fibrinogen 36-52 [24]. Anti-CCP2 reactivity was determined using the Immunoscan CCPlus® assay. All pooled samples were CCP2 positive.
(§2) ACPA pools I and II were used at a concentration of 1.2 μg/ml (8 nM IgG). The autoantibodies were incubated with the fibrinogen and fibrinogen-derived peptides at room temperature for one hour. The mole quantities of peptides tested were: 0.016, 0.16, 1.6, 16, 22, 49, 60, 80, 120, 160, 216, and 320 nmol in an incubation volume of 225 μl. ACPA blocking by the fibrinogen peptides was subsequently assessed by measuring the remaining anti-CCP2 reactivity. Cit573 and Cit591 were equally combined and co-tested for ACPA blocking. Arginine peptides (573, 591, 72, and 74) were used as negative controls in all assays.
(§3) To further explore the blocking potential of Cit573, a retrieval assay was performed, that is, the ability of the peptide to compete with already CCP2-bound ACPA was tested. ACPA pool I was added to the CCP2 plate and incubated for one hour at room temperature, followed by the addition of the peptides (citrulline and unmodified peptides) at mole quantities ranging from 16 to 320 nmol. ACPA pools incubated with no peptide were defined as positive control, giving the maximum values of anti-CCP2 reactivity. Arbitrary units were calculated according to the standard curve given by the ELISA kit. Each experiment had one standard curve. Mean values were calculated and results are expressed as a function of percentage of inhibition of ACPA from the peptide amount (nmol).
(§4) Results are presented as mean ± standard error (SEM) of values (two to seven experiments per ACPA pool), and were compared using the Student’s t-test for unpaired comparisons using GraphPad Prism 6 software (La Jolla, CA, USA). Median values were also calculated in order to consider non-Gaussian distributions. As the mean and median values were generally coincident, the Mann-Whitney U test was not selected for statistical analysis. P <0.05 was assumed to denote a significant difference. Relative IC50 values (IC50 definition according to International Union of Pharmacology Committee on Receptor Nomenclature and Drug Classification – ‘the molar concentration of an antagonist that reduces the response to an agonist by 50 %’ [25]) were also calculated using GraphPad Prism 6 software. Cutoffs for the ISAC system chip data were calculated as the 98th percentile reactivity among the 461 EIRA controls investigated in parallel to the 927 RA patients.

[2] = test system: ACPA pool II (affinity purified human anti-CCP2 IgG); assay: as above; format: binding; conditions: for maximum ACPA blocking (inhibition of anti-CCP2 reactivity): ACPA pool II 1.2 μg/ml (8 nM IgG), peptide 0.016-320 nmol in 225 μl, 1 h room temperature before CCP2 ELISA, mean of 2-7 experiments; for IC50: ACPA pool II 1.2 μg/ml, 1 h room temperature pre-incubation, mean ± SEM, n given per value (n = 2-4), GraphPad Prism, read-out: IC50 of ACPA blocking (relative IC50)
Experimental: as §1, §2, §3, §4

[3] = test system: sera from RA patients (EIRA cohort); assay: Peptide microarray (ImmunoCAP ISAC), immune reactivity of sera against the fibrinogen peptides; format: binding, human; conditions: for positive immune reactivity among anti-CCP2-positive RA patients: 402 CCP2-positive RA sera; for positive immune reactivity among anti-CCP2-positive RA patients / positive immune reactivity among anti-CCP2-negative RA patients: cutoff 98th percentile of healthy controls; for positive immune reactivity among anti-CCP2-negative RA patients: 525 CCP2-negative RA sera; for diagnostic sensitivity among all 927 RA patients: share of sera positive, Arg control intensity subtracted, cutoff 98th percentile of 461 healthy controls (98 % specificity)
Experimental: Serum from 927 RA patients (newly diagnosed patients within 12 months of appearance of first symptoms; 402 CCP2 positive and 525 CCP2 negative) and 461 healthy controls from the Epidemiological Investigation of RA (EIRA) case-control cohort were collected. Control samples were randomly chosen from the Swedish population registry, matching for age, sex, and residential area. All serum and plasma samples were stored at −70 °C prior to analysis. All patients fulfilled the American College of Rheumatology-European League Against Rheumatism criteria for RA [20]. CCP2-positive RA individuals used for ACPA affinity purification were selected based on having high anti-CCP2 antibody levels (>300 AU/ml, Immunoscan CCPlus® assay, Euro-Diagnostica AB, Sweden). All patients gave written informed consent. This study was approved by the regional ethical committee at the Karolinska Institutet (96-174), and performed in accordance with the Declaration of Helsinki.
Peptide microarray was performed as previously described. Briefly, peptides (sequences in Table 1) were immobilized onto a chemically modified glass slide, sera from RA patients and healthy controls were applied into the reactions sites, and fluorescence intensity after incubation with anti-human IgG antibody was acquired in a laser scanner (LuxScan 10K, CapitalBio, Beijing, China). Final results for each citrullinated peptide were calculated by subtracting the intensity values of the corresponding arginine-containing control from the citrullinated peptide for all RA patients and controls. Cutoff values were determined as the 98th percentile of the healthy control responses. Microarray data are available in the ArrayExpress database under accession number [EMBL:E-MTAB-3606].
as §4

[4] = test system: ACPA pool I bound to CCP2 plate; assay: Retrieval assay: peptide competes with already CCP2-bound ACPA; format: binding, human; conditions: ACPA pool I bound to CCP2 plate 1 h room temperature, then peptide 16-320 nmol; data not shown
Experimental: as §3

SMILES	IC50 [1] [µM]	IC50 [2] [µM]	ACPA binding to the CCP2 ELISA plate reverted (retrieval) [4] [%]	maximum ACPA blocking (inhibition of anti-CCP2 reactivity) [1] [%]	maximum ACPA blocking (inhibition of anti-CCP2 reactivity) ([1]; listed as cyclic form of the Cit573 peptide)	maximum ACPA blocking (inhibition of anti-CCP2 reactivity) [2]	positive immune reactivity among anti-CCP2-positive RA patients [3]	positive immune reactivity among anti-CCP2-negative RA patients [3]	diagnostic sensitivity among all 927 RA patients [3] [%]
CC[C@H](C)[C@@H]1NC(=O)CNC(=O)[C@@H]2CCCN2C(=O)[C@H](Cc2c[nH]cn2)NC(=O)[C@H](Cc2c[nH]cn2)NC(=O)[C@H](CS)NC(=O)[C@H](Cc2ccccc2)NC(=O)[C@H](CCC(N)=O)NC(=O)[C@H](CCCCN)NC(=O)[C@H](CO)NC(=O)[C@H](Cc2ccc(O)cc2)NC(=O)[C@H](CO)NC(=O)[C@H](CO)NC(=O)[C@H](CO)NC(=O)[C@H](CCCCN)NC(=O)CNC(=O)[C@H](CCCNC(N)=O)NC(=O)[C@H](CO)NC(=O)[C@@H]2CCCN2C(=O)[C@H](Cc2ccccc2)NC(=O)[C@H](CCC(=O)O)NC(=O)[C@H](C)NC1=O [Cit573Cyc] (cyclo(CHHPGIAEFPS[Cit]GKSSSYSKQF))	28			92	approximately 90%	approximately 90%			
C[C@H](N)C(=O)N[C@@H](CCC(=O)O)C(=O)N[C@@H](Cc1ccccc1)C(=O)N1CCC[C@H]1C(=O)N[C@@H](CO)C(=O)N[C@@H](CCCNC(N)=O)C(=O)NCC(=O)N[C@@H](CCCCN)C(=O)N[C@@H](CO)C(=O)N[C@@H](CO)C(=O)N[C@@H](CO)C(=O)O [Cit573Lin2] (H-AEFPS[Cit]GKSSS-OH; N-terminus assumed)	123	105		69		40%			

Continued, in another order:

IC50 [1] [µM]	IC50 [2] [µM]	ACPA binding to the CCP2 ELISA plate reverted (retrieval) [4] [%]	SMILES	maximum ACPA blocking (inhibition of anti-CCP2 reactivity) [1] [%]	maximum ACPA blocking (inhibition of anti-CCP2 reactivity) ([1]; listed as cyclic form of the Cit573 peptide)	maximum ACPA blocking (inhibition of anti-CCP2 reactivity) [2]	positive immune reactivity among anti-CCP2-positive RA patients [3]	positive immune reactivity among anti-CCP2-negative RA patients [3]	diagnostic sensitivity among all 927 RA patients [3] [%]
194	412		C[C@@H](O)[C@H](NC(=O)[C@H](CO)NC(=O)[C@H](CC(=O)O)NC(=O)CNC(=O)[C@H](CCCNC(N)=O)NC(=O)[C@H](CC(N)=O)NC(=O)[C@H](Cc1ccc(O)cc1)NC(=O)[C@H](CO)NC(=O)[C@@H](NC(=O)[C@H](CO)NC(=O)[C@H](CO)NC(=O)[C@@H](NC(=O)[C@H](Cc1ccccc1)NC(=O)[C@H](CCC(N)=O)NC(=O)[C@H](CCCCN)NC(=O)[C@@H](N)CO)[C@@H](C)O)[C@@H](C)O)C(=O)N[C@@H](Cc1ccccc1)C(=O)N[C@@H](CCC(=O)O)C(=O)N[C@@H](CO)C(=O)N[C@@H](CCCCN)C(=O)N[C@@H](CO)C(=O)O [Cit591] (H-SKQFTSSTSYN[Cit]GDSTFESKS-OH)	63			15% and 14.7%	6% and 6.1%	9.8
59	548	80	CC[C@H](C)[C@H](NC(=O)CNC(=O)[C@@H]1CCCN1C(=O)[C@H](Cc1c[nH]cn1)NC(=O)[C@@H](N)Cc1c[nH]cn1)C(=O)N[C@@H](C)C(=O)N[C@@H](CCC(=O)O)C(=O)N[C@@H](Cc1ccccc1)C(=O)N1CCC[C@H]1C(=O)N[C@@H](CO)C(=O)N[C@@H](CCCNC(N)=O)C(=O)NCC(=O)N[C@@H](CCCCN)C(=O)N[C@@H](CO)C(=O)N[C@@H](CO)C(=O)N[C@@H](CO)C(=O)N[C@@H](Cc1ccc(O)cc1)C(=O)N[C@@H](CO)C(=O)N[C@@H](CCCCN)C(=O)N[C@@H](CCC(N)=O)C(=O)N[C@@H](Cc1ccccc1)C(=O)O [Cit573] (H-HHPGIAEFPS[Cit]GKSSSYSKQF-OH)	84		Approximately 50%	65% and 65.4%	5% and 5.5%	31.5
51	186		CC[C@H](C)[C@H](NC(=O)CN)C(=O)N[C@@H](C)C(=O)N[C@@H](CCC(=O)O)C(=O)N[C@@H](Cc1ccccc1)C(=O)N1CCC[C@H]1C(=O)N[C@@H](CO)C(=O)N[C@@H](CCCNC(N)=O)C(=O)NCC(=O)N[C@@H](CCCCN)C(=O)N[C@@H](CO)C(=O)N[C@@H](CO)C(=O)N[C@@H](CO)C(=O)N[C@@H](Cc1ccc(O)cc1)C(=O)N[C@@H](CO)C(=O)O [Cit573Lin1] (H-GIAEFPS[Cit]GKSSSYS-OH; N-terminus assumed)	75		47%			
